“And” between values parts separate entries of the source, which are not always exact repeats. Equal values may be shown once. Read-outs that look alike come from different tables or passages of the source.
Columns and labels:
[1] = Single-dose oral pharmacokinetics in non-tumor bearing mice; assay type: in vivo; settings: female, NOD/scid; for CL/F: read-out: CL_F (converted)
Experimental: In order to understand the effective anti-AML exposure of narazaciclib in mice, we conducted a preliminary pharmacokinetic (PK) analysis of a single-dose oral administration of narazaciclib, at the same dose levels as in anti-AML pharmacology study above, in non-tumor bearing mice. Following a single oral administration of narazaciclib at either 30 mg/kg or 100 mg/kg in mice, plasma samples were collected at various timepoints. The plasma concentrations of narazaciclib were analyzed by LC–MS. […] In addition, narazaciclib undergoes relatively fast elimination from plasma with a T1/2 of 2.77 h for narazaciclib at 100 mg/kg or 1.92 h at 30 mg/kg.
Noncompartmental analyses (NCA) were performed using WinNonlinTM Phoenix, version XXX software (Pharsight, Cary, NC) to estimate the PK parameters including T1/2, elimination half-life; Tmax, Time to peak drug concentration; Cmax, maximum concentration; AUC0-∞, area under the plasma concentration–time curve from zero to infinity; AUC0-t, area under the plasma concentration–time curve from zero to the time of the last quantifiable time-point; CL_F, total body clearance; Vz-F, total volume of distribution. Following a single oral administration of narazaciclib at either 100 mg/kg or 30 mg/kg in female NOD/scid mice (N = 3), plasma samples were collected from 3 mice at each timepoint (pre-dose, 1h, 2h, 4h, 8h, 12h and24hpost administration) and analyzed by LC–MS.

[2] = test system: Ba/F3-RBM6-CSF1R cell line; test: Ba/F3-RBM6-CSF1R proliferation assay (CTG); assay type: cell-based, mouse; settings: Mus musculus; not requiring CSF1
Experimental: The recombinant Ba/F3 cell lines overexpressing human CSF1R, or human RBM6-CSF1R, or human ETV6-CSF1R were generated using a retrovirus vector (Kyinno Co., Ltd. Beijing). The recombinant Ba/F3 lines overexpressing human Kras G12C orEGFR-L718Q mutants, and different mutant variants of FLT3 were also similarly created as well. A standard proliferation assay via CTG readout was performed according to the vendor’s instructions (KYinno Biotechnology Co., Ltd. Beijing).

M2 primary macrophages = test: Primary macrophage proliferation assay; assay type: cell-based; settings: Homo sapiens
Experimental: Human primary monocytes were isolated with an EasySep™ monocyte isolation kit (Stem Cell) from cryopreserved human PBMCs. […] Narazaciclib was serially diluted with culture medium to 9 final concentrations from 0.004 µM to 24 µM. The differentiated macrophages were incubated for 7 days at 37 °C followed by incubation with Cell Counting-Lite2.0 reagent (Vazyme) for 5 min on a shaker. Luminescence was recorded […]. The proliferation inhibition IC50 (half maximal inhibition concentration) of narazaciclib was determined by fitting the dose–response data to a four-parameter stimulation model.

FLT3 = FLT3 (Homo sapiens, UniProt P36888); test: FLT3 kinase inhibition assay (ADP-Glo); assay type: biochemical; settings: ATP 10 μM; read-out: IC50 FLT3 enzymatic activity
Experimental: Different assays were used to measure the inhibitory potencies of narazaciclib on FLT3, CSF1R and CDK6. For FLT3 inhibition, the enzyme, substrate (final concentration at 15 μg/μL), ATP (final concentration at 10 μM) and inhibitors were diluted and mixed in kinase buffer (40 mM Tris, pH 7.5; 20 mM MgCl2; 0.1 mg/ml BSA; 50 μM DTT). The mixtures were incubated at 25 °C for 120 min. Then, ADP‐Glo™ Reagent (Promega) was added to the mix and incubated at 25 °C for 40 min followed by the addition of kinase detection reagent and another 30 min at 25 °C. Luminescence was recorded with an integration time of 0.5 s.

[3] = 30 mg/kg single oral, mouse plasma
[4] = 100 mg/kg single oral, mouse plasma

Sequence of FLT3 (P36888 27-993): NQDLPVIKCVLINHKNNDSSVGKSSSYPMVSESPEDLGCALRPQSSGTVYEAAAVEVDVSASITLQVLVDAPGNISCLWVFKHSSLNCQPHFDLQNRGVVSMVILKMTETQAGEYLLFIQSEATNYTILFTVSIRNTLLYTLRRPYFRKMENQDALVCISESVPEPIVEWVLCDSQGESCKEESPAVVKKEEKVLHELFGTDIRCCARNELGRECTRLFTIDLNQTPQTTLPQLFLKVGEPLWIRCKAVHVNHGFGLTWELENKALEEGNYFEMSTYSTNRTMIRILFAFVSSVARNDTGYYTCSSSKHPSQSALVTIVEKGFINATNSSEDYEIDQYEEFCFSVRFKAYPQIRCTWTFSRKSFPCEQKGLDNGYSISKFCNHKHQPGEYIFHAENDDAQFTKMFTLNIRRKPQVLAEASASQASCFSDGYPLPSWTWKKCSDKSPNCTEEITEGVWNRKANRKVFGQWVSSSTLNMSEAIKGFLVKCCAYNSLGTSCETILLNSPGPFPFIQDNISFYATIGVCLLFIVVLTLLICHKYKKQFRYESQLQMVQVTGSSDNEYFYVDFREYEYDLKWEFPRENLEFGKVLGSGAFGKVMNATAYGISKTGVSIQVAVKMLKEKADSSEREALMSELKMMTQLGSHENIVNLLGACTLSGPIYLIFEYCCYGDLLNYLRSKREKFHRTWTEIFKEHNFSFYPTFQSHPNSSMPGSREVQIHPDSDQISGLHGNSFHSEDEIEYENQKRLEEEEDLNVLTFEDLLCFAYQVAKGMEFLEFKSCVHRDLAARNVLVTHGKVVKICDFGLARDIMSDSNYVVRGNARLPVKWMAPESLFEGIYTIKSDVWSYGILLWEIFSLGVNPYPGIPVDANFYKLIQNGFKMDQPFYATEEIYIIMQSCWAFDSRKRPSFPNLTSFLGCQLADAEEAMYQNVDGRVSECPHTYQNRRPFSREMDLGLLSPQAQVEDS

AUC(0-inf) ([1]; mouse, plasma, oral, corresponding to 100 mg/kg dose level, read-out: efficacious exposure for anti-AML in mice in terms of AUC0~∞): < 8190 ng·h/mL
Cmax ([1]; mouse, plasma, oral, corresponding to 100 mg/kg dose level, read-out: efficacious exposure for anti-AML in mice in terms of Cmax): < 1460 ng/mL
AUC(0-t) [1, 3]: 1040 ng·h/mL
Tmax [1, 3]: 1 h
half-life [1, 3]: 1.92 h
AUC(0-inf) ([1]; 30 mg/kg single oral, mouse plasma, read-out: AUC0-∞): 1200 ng·h/mL
CL/F [1, 3]: 415 mL/min/kg
Cmax ([1]; 30 mg/kg single oral, mouse plasma, read-out: Cmax): 469 ng/mL
AUC(0-t) [1, 4]: 8190 ng·h/mL
Tmax [1, 4]: 2 h
half-life [1, 4]: 2.77 h
AUC(0-inf) ([1]; 100 mg/kg single oral, mouse plasma, read-out: AUC0-∞): 8210 ng·h/mL
CL/F [1, 4]: 203 mL/min/kg
Cmax ([1]; 100 mg/kg single oral, mouse plasma, read-out: Cmax): 1460 ng/mL
IC50 [2]: 36.9 nM
IC50 (FLT3): ~19.8 nM and 19.8 nM
Structure (SMILES): CN1CCN(c2ccc(Nc3ncc4cc(C#N)c(=O)n(C5CCCC5)c4n3)cc2)CC1 [Narazaciclib, narazaciclib]
IC50 (M2 primary macrophages; M2-macrophages, read-out: IC50 M2-macrophage proliferation): 72.5 nM
IC50 (M2 primary macrophages; M-CSF : GM-CSF Ratio 0:100, read-out: IC50 M2-Macrophages Growth Inhibition): 3650 nM
IC50 (M2 primary macrophages; M-CSF : GM-CSF Ratio 25:75, read-out: IC50 M2-Macrophages Growth Inhibition): 3520 nM
IC50 (M2 primary macrophages; M-CSF : GM-CSF Ratio 50:50, read-out: IC50 M2-Macrophages Growth Inhibition): 3970 nM
IC50 (M2 primary macrophages; M-CSF : GM-CSF Ratio 75:25, read-out: IC50 M2-Macrophages Growth Inhibition): 3700 nM
